US20250223281A1, “ANTIDIABETIC COMPOUNDS AND COMPOSITIONS” (REZUBIO PHARMACEUTICALS CO., LTD, priority 2022, published 2025)

Molecular target: T1, GPR40 (Homo sapiens, UniProt O14842)
T1 construct: expressed in transfected cells; host or cells: HEK293 cells stably expressing GPR40 (Hygromycin selection)
Assay: IP1 accumulation assay in HEK293 cells stably expressing GPR40
Type: cell-based
Procedure: IP1 accumulation assay was used to evaluate the potency of compounds. HEK293 cells stably expressing GPR40 were cultured in 5% CO2 incubator (ThermoFisher) in maintenance media (Dulbecco's modified Eagle's medium with 4.5 g/L of glucose, 10% fetal bovine serum, 100 μg/mL Hygromycin, and Penicillin (100 U/mL)/Streptomycin (100 μg/mL)) till 100% confluency. Cells were harvested freshly, spun down at 300×g for 5 min, and resuspended in pre-warmed 1× stimulant buffer from Cisbio IP-One HTRF Detection kit (Cisbio). Cell density was adjusted to 2.0×10^6 cells/mL. DMSO was used as blank control and AMG-1638 (CAS #: 1142214-62-7) as positive control. Compounds were prepared at 10 mM in DMSO and 5 nL of 3× serially diluted compounds (10 concentrations) were added to each well of the 384-LDV assay plate (Corning) by using ECHO 550 (Labcyte). Five μL of cells in suspension were transferred into each well by using Multidrop Combi Reagent Dispenser (ThermoFisher). Assay plate was then sealed and incubated at 37° C. for 2 hours. IP-d2 reagent and anti-IP1 reagent were prepared following the manual (Cisbio). Five μL of IP1-d2 and then 5 μL of anti-IP1 antibody was added to each well sequentially. Assay plate was incubated at room temperature for 60 min and then read at 665 nm/615 nm on an Envision plate reader (PerkinElmer). The ratio of values obtained at 665 nm and 615 nm was used for calculation of IP1 accumulation: % Effect=(Ratiosample−Ratioblank)/(RatioAMG-1638−Ratioblank)×100. Dose curve was fitted and EC50 of each compound was calculated by using XLFit.

[1] = IP1 accumulation, HEK293 cells stably expressing GPR40, 2 hours at 37° C., % effect relative to AMG-1638, table of Biological Example 1
[2] = Tables A-1a to A-7b (structure-property relationship), obtained by methods of Biological Example 1

T1 sequence (O14842 whole entry): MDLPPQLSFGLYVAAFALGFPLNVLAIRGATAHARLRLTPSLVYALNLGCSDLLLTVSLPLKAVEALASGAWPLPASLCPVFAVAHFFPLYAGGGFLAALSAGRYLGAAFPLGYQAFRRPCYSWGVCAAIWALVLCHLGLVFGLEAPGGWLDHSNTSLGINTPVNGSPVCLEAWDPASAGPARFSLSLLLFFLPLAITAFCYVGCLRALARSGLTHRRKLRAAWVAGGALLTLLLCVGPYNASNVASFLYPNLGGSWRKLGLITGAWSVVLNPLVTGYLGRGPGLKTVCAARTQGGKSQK

SMILES: COc1ccc(C(=O)N(CC(C)(C)CCCCCCn2cc(CCCCCCCCCCC(=O)NCCN(CCC(=O)NCCN)CCC(=O)NCCN)nn2)c2cccc(C)n2)c(N2CCC(COc3cc([C@@H](CC(=O)O)C4CC4)ccn3)CC2)c1 [Example 74]
- EC50 [1]: 2.99 nM
- EC50 [2]: 2.99 nM

SMILES: COc1ccc(C(=O)N(CC(C)(C)CCCCCCn2cc(CCCCCCCCC(=O)NCCN(CCC(=O)NCCN)CCC(=O)NCCN)nn2)c2cccc(C)n2)c(N2CCC(COc3cc([C@@H](CC(=O)O)C4CC4)ccn3)CC2)c1 [Example 75]
- EC50 [1]: 0.75 nM
- EC50 [2]: 1.92 nM

SMILES: CCCCCNC(=O)CCCCCCCCCCCCCCCCCc1cn(CC(C)(C)Cc2cc(COc3cccc([C@@H](CC(=O)O)C4CC4)c3)ccc2-c2cc(OC)ccc2F)nn1 [Example 76]
- EC50 [1]: 112 nM

SMILES: C[C@H](C(=O)O)[C@H](c1ccc2c(c1)O[C@@H](C1CCN(Cc3cc(-c4cn(CCCCCCCCCC(=O)NCCN(CCC(=O)NCCN)CCC(=O)NCCN)nn4)ccc3OC(F)(F)F)CC1)CC2)C1CC1 [Example 77]
- EC50 [1]: 8400 nM
- EC50 [2]: > 10000 nM

SMILES: C[C@H](C(=O)O)[C@H](c1ccc2c(c1)O[C@@H](C1CCN(Cc3cc(-n4cc(CCCCCCCCCCCCCC(=O)NCCN(CCC(=O)NCCN)CCC(=O)NCCN)nn4)ccc3OC(F)(F)F)CC1)CC2)C1CC1 [Example 78]
- EC50 [1]: 1.4 nM
- EC50 [2]: 1.4 nM

SMILES: C[C@H](C(=O)O)[C@H](c1ccc2c(c1)O[C@@H](C1CCN(Cc3cc(-n4cc(CCCCCCCCCCC(=O)NCCN(CCC(=O)NCCN)CCC(=O)NCCN)nn4)ccc3OC(F)(F)F)CC1)CC2)C1CC1 [Example 79]
- EC50 [1]: 183 nM
- EC50 [2]: 183 nM

SMILES: C[C@H](C(=O)O)[C@H](c1ccc2c(c1)O[C@@H](C1CCN(Cc3cc(-n4cc(CCCCCCCCC(=O)NCCN(CCC(=O)NCCN)CCC(=O)NCCN)nn4)ccc3OC(F)(F)F)CC1)CC2)C1CC1 [Example 80]
- EC50 [1]: > 5000 nM
- EC50 [2]: > 5000 nM

SMILES: COc1ccc(F)c(-c2ccc(COc3cccc([C@@H](CC(=O)O)C4CC4)c3)cc2CC(C)(C)Cn2cc(CCCCCCCCCCCCCCCCCC(=O)NCCCN(CC(=O)O)CC(=O)O)nn2)c1 [Example 81]
- EC50 [1]: 2.2 nM

SMILES: C[C@H](C(=O)O)[C@H](c1ccc2c(c1)O[C@@H](C1CCN(Cc3cc(-c4cn(CCCCCCCCCC(=O)NCC[N+](C)(CCC(=O)NCCN)CCC(=O)NCCN)nn4)ccc3OC(F)(F)F)CC1)CC2)C1CC1 [Example 82]
- EC50 [1]: > 10000 nM
- EC50 [2]: > 10000 nM

SMILES: C[C@H](C(=O)O)[C@H](c1ccc2c(c1)O[C@@H](C1CCN(Cc3cc(-c4cn(CCCCCCCCCCCC(=O)NCC[N+](C)(CCC(=O)NCCN)CCC(=O)NCCN)nn4)ccc3OC(F)(F)F)CC1)CC2)C1CC1 [Example 83]
- EC50 [1]: 651 nM
- EC50 [2]: 650 nM

SMILES: C[C@H](C(=O)O)[C@H](c1ccc2c(c1)O[C@@H](C1CCN(Cc3cc(-c4cn(CCCCCCCCCCCCCCCC(=O)NCC[N+](C)(CCC(=O)NCCN)CCC(=O)NCCN)nn4)ccc3OC(F)(F)F)CC1)CC2)C1CC1 [Example 84]
- EC50 [1]: 0.74 nM
- EC50 [2]: 0.74 nM

SMILES: CCCCCOC(=O)CCCCCCCCCCCCCCCCCc1cn(CC(C)(C)Cc2cc(COc3cccc([C@@H](CC(=O)O)C4CC4)c3)ccc2-c2cc(OC)ccc2F)nn1 [Example 85]
- EC50 [1]: > 1300 nM

SMILES: C[C@H](C(=O)O)[C@H](c1ccc2c(c1)O[C@@H](C1CCN(Cc3cc(-n4cc(CCCCCCCCCCC(=O)NCC[N+](C)(CCC(=O)NCCN)CCC(=O)NCCN)nn4)ccc3OC(F)(F)F)CC1)CC2)C1CC1 [Example 86]
- EC50 [1]: 195 nM
- EC50 [2]: 195 nM

SMILES: COc1ccc(F)c(-c2ccc(COc3cccc([C@@H](CC(=O)O)C4CC4)c3)cc2C(C)(C)c2cn(CCCCCCCCCCCC(=O)NCC[N+](C)(CCC(=O)NCCN)CCC(=O)NCCN)nn2)c1 [Example 87]
- EC50 [1]: > 2700 nM

SMILES: COc1ccc(F)c(-c2ccc(COc3cccc([C@@H](CC(=O)O)C4CC4)c3)cc2OC(C)(C)Cn2cc(CCCCCCCCCCCCCC(=O)NCCN(CCC(=O)NCCN)CCC(=O)NCCN)nn2)c1 [Example 88]
- EC50 [1]: 22.8 nM

SMILES: COc1ccc(F)c(-c2ccc(COc3cccc([C@@H](CC(=O)O)C4CC4)c3)cc2CC(C)(C)Cc2cn(CCCCCCCCCCCCCCCC(=O)NCCN(CCC(=O)NCCN)CCC(=O)NCCN)nn2)c1 [Example 89]
- EC50 [1]: 2.19 nM
- EC50 [2]: 2.19 nM
